*1 amine or outer side, *2 acyl side, *3 side chain or, on linkers, in order; H or OH if unused. Where a SMILES comes first, the peptide text is derived from it. Side-chain parts run from the residue outwards. [ ]: non-standard residue; d: D form. dPhe(4-NH2) = Nc1ccc(C[C@@H](N)C(=O)O)cc1; dPhe(4-Cl) = N[C@H](Cc1ccc(Cl)cc1)C(=O)O; Phe(4-NH2) = Nc1ccc(C[C@H](N)C(=O)O)cc1; d2Nal = N[C@H](Cc1ccc2ccccc2c1)C(=O)O; Lys(iPr) = CC(C)NCCCC[C@H](N)C(=O)O; dDap = NC[C@@H](N)C(=O)O; CO = O=C([*:1])[*:2]
Columns and labels:
[1] = examination of injected rats for tolerance and gelling at the point of injection; assay type: in vivo; conditions: 50 μg per rat sc
[2] = hydrophilicity by RP-HPLC retention time, TEAP pH 7.0 gradient; assay type: physicochemical; conditions: 40% to 70% Buffer B over 30 minutes
Protocol: Hydrophilicity is tested by measuring retention time using RP-HPLC with a gradient of 40% Buffer B to 70% Buffer B over 30 minutes, with Buffer A being TEAP pH 7.0 and Buffer B being 70% CH3 CN and 30% Buffer A at pH 7.0.

LH secretion = experiment: in vivo suppression of circulating LH levels in castrated male Sprague-Dawley rats treated subcutaneously; parameters: species or system rat; conditions: for in vivo suppression of LH secretion compared with a reference peptide: dosage not printed at the place; for suppression of LH compared with a reference peptide: standard in vivo rat test as in Example 1
Protocol: The peptide is hereinafter referred to as Peptide No. 1 and is assayed in vivo to determine its effectiveness to suppress secretion of LH in rats. Measurement of circulating LH levels in castrated male Sprague-Dawley rats treated subcutaneously with the peptide is carried out as reported in C. Rivier et al. Biol. Reproduc., 1983. 29, 374-378. The peptides are first dissolved at a concentration of 1.0 or 10 mg/ml in bacteriostatic water and then further diluted in 0.04M phosphate buffer containing 0.1% BSA. Subsequent dilutions are made in phosphate buffer. The peptides are injected sc, and blood samples (300 μl) are collected under metotane anesthesia. Sera (50 […]) are tested for LH levels in duplicate using reagents provided by the National Pituitary and Hormone Distribution Program of the NIDDK. […] However, 96 hours following injection, the LH levels are only about 75% of those of the Acyline-injected rats.

[3] = dosage of 50 micrograms per rat sc

In the case of `CNC(=O)NC[C@@H](NC(=O)[C@@H](Cc1ccc(Cl)cc1)NC(=O)[C@@H](Cc1ccc2ccccc2c1)NC(C)=O)C(=O)N[C@@H](CO)C(=O)N[C@@H](Cc1ccc(NC(C)=O)cc1)C(=O)N[C@H](Cc1ccc(NC(C)=O)cc1)C(=O)N[C@@H](CC(C)C)C(=O)N[C@@H](CCCCNC(C)C)C(=O)N1CCC[C@H]1C(=O)N[C@H](C)C(N)=O` [Peptide No. 1, Ac-D-2Nal-(4Cl)D-Phe-D-Dpr(methylcarbamoyl)-Ser-4Aph (acetyl)-D-4Aph(acetyl)-Leu-Lys(isopropyl)-Pro-D-Ala-NH2] (Ac-[d2Nal][dPhe(4-Cl)][dDap]([CO-NHMe])S[Phe(4-NH2)](Ac)[dPhe(4-NH2)](Ac)L[Lys(iPr)]P[dA]-NH2), the “gelling at the point of injection” value [1] is reported as “no significant gelling at the point of injection being detectable” and the “tolerance of the peptide in injected rats” value [1] is reported as “very well tolerated”.
In the case of “Ac-D-2Nal-D-4Cpa-D-Dpr(methylcarbamoyl)-Ser-4Aph(Gab)(atz)-D-4Aph(Gab)(atz)-Leu-ILys-Pro-D-Ala-NH2 [Peptide No. 5A]”, the “hydrophilicity compared with a reference peptide” value [2] is reported as “more hydrophilic than Antide” and the “in vivo suppression of LH secretion compared with a reference peptide” value (LH secretion) is reported as “longer duration of in vivo suppression of LH secretion than Acyline”.
For “Ac-D-2Nal-D-4Cpa-D-Dpr(methylcarbamoyl)-Ser-4Aph(β-Ala)(atz)-D-4Aph(β-Ala)(atz)-Leu-ILys-Pro-D-Ala-NH2 [Peptide No. 5B]”, the “hydrophilicity compared with a reference peptide” value [2] was “more hydrophilic than Antide” and the “in vivo suppression of LH secretion compared with a reference peptide” value (LH secretion) was “longer duration of in vivo suppression of LH secretion than Antide”.
In the case of “Ac-β-D-2Nal-D-4Cpa-D-Dpr(methylcarbamoyl)-Ser-4Aph(Hor)-D-Aph(Hor)-Leu-Lys(isopropyl)-Pro-D-Ala-NH2 [Example 5E]”, the “hydrophilicity compared with a reference peptide” value [2] is reported as “more hydrophilic than Acyline”, the “duration of action, as classed in words” value (LH secretion; [3]) is reported as “long-acting” and the “suppression of LH compared with a reference peptide” value (LH secretion; [3]) is reported as “substantially as active as Acyline in suppressing LH level at 1, 2 and 3 days”.
In the case of “Ac-β-D-2Nal-D-4Cpa-Gln-Ser-4Aph(hydroorotyl)-D-4Amf(methylcarbamoyl)- Leu-Lys(isopropyl)-Pro-D-Ala-NH2 [Example 8F]”, the “hydrophilicity compared with a reference peptide” value [2] is reported as “more hydrophilic than Acyline” and the “suppression of LH compared with a reference peptide” value (LH secretion; [3]) is reported as “substantially as effective as Acyline for 3 days”.
